From ChEMBL document CHEMBL6153087, “Emoquine-1: A Hybrid Molecule Efficient against Multidrug-Resistant Plasmodium Parasites, Including the Artemisinin-Resistant Quiescent Stage, and Also Active In Vivo” (J Med Chem, 2025)
Calls of active or inactive are those of the source. The calls are words filed in the database; no cut-off is given here.

What was measured:
Plasmodium falciparum [1] = test: Antiplasmodial activity against artemisinin-resistant Plasmodium falciparum F32 assessed as inhibition of parasite growth incubated for 48 hrs of SYBR green fluorescence-based method; format: functional, organism-based; settings: F32, 48 h
Plasmodium falciparum [2] = test: Antiplasmodial activity against atovaquone-resistant Plasmodium falciparum clinical isolate Q120 assessed as inhibition of parasite growth incubated for 48 hrs of SYBR green fluorescence-based method; format: functional, organism-based
Plasmodium falciparum [3] = test: Antiplasmodial activity against synchronized ring stage artemisinin-resistant Plasmodium falciparum F32 assessed as decrease in parasite recrudescence by measuring time required for parasites to reach initial parasitemia at 1 uM incubated for 48 hrs by recrudescence assay; format: functional
Plasmodium falciparum [4] = test: Antiplasmodial activity against chloroquine-resistant Plasmodium falciparum clinical isolate IPC8262 assessed as inhibition of parasite growth incubated for 48 hrs of SYBR green fluorescence-based method; format: functional, organism-based
[5] = Cytotoxicity against African green monkey Vero cells assessed as cell metabolic activity incubated for 48 hrs by MTT assay; format: toxicity, cell-based; settings: chlorocebus sabaeus
Plasmodium falciparum [6] = test: Antiplasmodial activity against synchronized ring stage artemisinin-sensitive Plasmodium falciparum F32 assessed as number of days required to reach 3% initial parasitemia by measuring median recrudescence time at 7 uM incubated for 48 hrs by recrudescence assay; format: functional
Plasmodium falciparum [7] = test: Antiplasmodial activity against chloroquine-resistant Plasmodium falciparum clinical isolate IPC8461 assessed as inhibition of parasite growth incubated for 48 hrs of SYBR green fluorescence-based method; format: functional, organism-based
Plasmodium falciparum [8] = test: (§1) Antiplasmodial activity against synchronized ring stage DHA-induced quiescent artemisinin-resistant Plasmodium falciparum F32 assessed as decrease in parasite recrudescence by measuring time required for parasites to reach initial parasitemia at 1 uM pretreated with dihydroartemisinin for 6 hrs followed by compound administration for 48 hrs in presence of dihydroartemisinin by quiescent-stage survival assay; format: functional
Plasmodium falciparum [9] = test: Antiplasmodial activity against synchronized ring stage artemisinin-resistant Plasmodium falciparum F32 assessed as number of days required to reach 3% initial parasitemia by measuring median recrudescence time at 7 uM incubated for 48 hrs by recrudescence assay; format: functional
[10] = Selectivity index, ratio of CC50 for cytotoxicity against African green monkey Vero cells to IC50 for antiplasmodial activity against artemisinin-resistant Plasmodium falciparum F32; format: toxicity, cell-based; settings: read-out: Ratio CC50/IC50
Heme [11] = test: Inhibition of heme polymerization in acetate buffer at pH 5 assessed as reduction in beta-hematin formation at 2.0 molequiv incubated for 18 hrs by infrared spectroscopic analysis relative to control
Heme [12] = test: Inhibition of heme polymerization in acetate buffer at pH 5 assessed as reduction in beta-hematin formation at 15 equiv incubated for 18 hrs by infrared spectroscopic analysis relative to control
Plasmodium falciparum [13] = test: Antiplasmodial activity against artemisinin-sensitive Plasmodium falciparum F32 assessed as inhibition of parasite growth incubated for 48 hrs of SYBR green fluorescence-based method; format: functional, organism-based; settings: F32, 48 h
Heme [14] = test: Inhibition of heme polymerization in acetate buffer at pH 5 assessed as reduction in beta-hematin formation at 10 molequiv incubated for 18 hrs by infrared spectroscopic analysis
Plasmodium falciparum [15] = test: as §1, with “recrudescence” for “recrudescence by measuring time required for parasites to reach initial parasitemia”; format: functional, organism-based
Plasmodium falciparum [16] = test: as §1, with “200 nM” for “1 uM”; format: functional
Plasmodium falciparum [17] = test: Antiplasmodial activity against synchronized ring stage artemisinin-resistant Plasmodium falciparum F32 assessed as decrease in parasite recrudescence by measuring time required for parasites to reach initial parasitemia at 200 nM incubated for 48 hrs by recrudescence assay; format: functional
Plasmodium falciparum [18] = test: Antiplasmodial activity against Plasmodium falciparum; format: functional, organism-based
[19] = Inhibition of recombinant Plasmodium falciparum 3D7 FIKK8 by enzyme-coupled assay
[20] = Stability in human plasma assessed as parent compound remaining at 1 uM measured after 2 hrs by LC-MS/MS analysis; format: ADME, cell-free; settings: read-out: Stability
Plasmodium falciparum [21] = test: Antiplasmodial activity against synchronized ring stage artemisinin-resistant Plasmodium falciparum F32 assessed as number of days required to reach 3% initial parasitemia by measuring median recrudescence time at 1 uM incubated for 48 hrs by recrudescence assay; format: functional
Plasmodium falciparum [22] = test: Antiplasmodial activity against synchronized ring stage artemisinin-sensitive Plasmodium falciparum F32 assessed as number of days required to reach 3% initial parasitemia by measuring median recrudescence time at 1 uM incubated for 48 hrs by recrudescence assay; format: functional
[23] = Metabolic stability in human liver microsomes at 1 uM measured after 1 hrs by LC-MS/MS analysis; format: ADME, Microsome
[24] = Metabolic stability in human liver microsomes assessed as half-life at 1 uM measured after 1 hrs by LC-MS/MS analysis; format: ADME, Microsome
[25] = Thermal stability at 60 degreeC incubated for 2 months; format: physicochemical; settings: 1460 h

| Compound | IC50 (Plasmodium falciparum [1]) [nM] | IC50 (Plasmodium falciparum [2]) [nM] | IC50 (Plasmodium falciparum [4]) [nM] | CC50 at 48 h [5] [nM] | IC50 (Plasmodium falciparum [7]) [nM] | selectivity ratio [10] | inhibition (Heme [11]) | IC50 (Plasmodium falciparum [13]) [nM] | also measured |
| --- | --- | --- | --- | --- | --- | --- | --- | --- | --- |
| O=C1C(O)=C([C@H]2CC[C@H](c3ccc(Cl)cc3)CC2)C(=O)c2ccccc21 [ATOVAQUONE] | 1.9 | 4700 | 0.7 | 7000 | 1 | 3700 | – | – | Time (Plasmodium falciparum [3]): 14 days; Time (Plasmodium falciparum [6]): 13 days; Time (Plasmodium falciparum [8]): 20 days; Time (Plasmodium falciparum [9]): 16 days |
| NCCNc1ccnc2cc(Cl)ccc12 | 54 | 2300 | 134 | > 50000 | 354 | > 925 | inactive | 28 | inhibition (Heme [12]): 100%; inhibition (Heme [14]): inactive; Activity (Plasmodium falciparum [15]): inactive |
| Clc1ccc([C@@H](c2ccccc2)N2CCNCC2)cc1 | > 10000 | 9000 | – | 20000 | – | < 2 | inactive | 6000 | inhibition (Heme [14]): inactive; Activity (Plasmodium falciparum [15]): inactive |
| Clc1ccc2c(N3CCNCC3)ccnc2c1 | 1310 | – | – | – | – | – | – | 1400 | – |
| CCN(CC)CCCC(C)Nc1ccnc2cc(Cl)ccc12 (centres undefined) [CHLOROQUINE] | – | – | – | > 50000 | – | – | – | – | Time (Plasmodium falciparum [16]): 8 days; Time (Plasmodium falciparum [17]): >20 days |
| Cc1cc(O)c2c(c1)C(=O)c1cc(O)cc(O)c1C2=O [EMODIN] | > 50000 | – | – | 34000 | – | < 0.7 | – | – | IC50 (Plasmodium falciparum [18]): > 10000 nM; IC50 [19]: 2000 nM |
| Clc1ccc([C@@H](c2ccccc2)N2CCN(CCNc3ccnc4cc(Cl)ccc34)CC2)cc1 | 101 | 9000 | 33 | 14000 | 53 | 140 | 100% | 75 | remaining at 2 h, 1 µM [20]: 100%; Time (Plasmodium falciparum [21]): 12 days; Time (Plasmodium falciparum [22]): 11 days; Stability [23]: Stable; Time (Plasmodium falciparum [8]): 7 days; half-life at 1 µM [24]: 46 min; Stability [25]: Stable |
